Usually IC50 stands for the concentration at which inhibition is half-maximal. By inhibition is commonly meant the relative decrease from the control value, in per cent.

Structures are written as SMILES.

For 17 compounds, IC50 and inhibition results are on record in patent publication US7579356B2, “Thia-tetraazaacenaphthylene kinase inhibitors” (Janssen Pharmaceutica NV, priority 2005, dated 2009).

Common to all, as to type: biochemical
The target in one assay is T1, EGFR (Homo sapiens, UniProt P00533).
T1 construct: The intracellular portion of EGFR started at nucleotide 2189 (corresponding to amino acid 667) and ended at the termination codon; made in house; host or cells: Sf9 insect cells (baculovirus)
Description: EGFR Kinase Assay. As to conditions: for IC50: GST-EGFR, ATP 5 μM; for inhibition at 2 µM: test concentration of 2 μM, compounds without an IC50, read-out: EGFR inhibition in percent. An outline of the steps:
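GST-fused human EGFR intracellular domain (from aa 667), Sf9-expressed, phosphorylated biotinylated polyGluTyr with 5 μM ATP plus γ-33P ATP in Tris pH 8.0, MgCl2, vanadate, 1 mM DTT, 1 h at 30 °C. Streptavidin Flashplate scintillation read; triplicate 16-point half-log series from 200 uM; IC50 from % inhibition vs log concentration, else % inhibition at 2 μM.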

The target of a further assay is T2, c-Src kinase (human) (Homo sapiens, UniProt P12931).
T2 construct: purchased Upstate Biotechnology, Lake Placid, N.Y
Description: c-Src Kinase Assay. Particulars: test concentration of 2 μM; multiple values are separate assay results. The method in brief: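 Inhibition was read as 33P incorporation, counted on P30 filtermats, after a 40 min, 30° C reaction. Human c-Src acted on 100 μM Cdc2 peptide with 5 μM ATP (final), pH 7.0 MOPS/MgCl2. Values are percent inhibition at 2 μM compound, or IC50 where determined.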

A further assay has as its target T3, Lyn kinase (human) (Homo sapiens, UniProt P07948).
T3 construct: purchased Upstate Biotechnology, Lake Placid, N.Y
Briefly: Lyn Kinase Assay. Particulars: test concentration of 2 μM. The method in brief:
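Radiometric filter-binding assay with recombinant human Lyn, poly(Glu,Tyr) substrate (0.1 mg/mL final), 5 μM ATP plus γ-33P-ATP in MOPS pH 7.5/Mg acetate buffer; 40 min at 30 °C, stopped with phosphoric acid, counted by scintillation. Reported as percent inhibition at 2 μM, with IC50 (μM) where determined.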

A further assay concerns the target T4, HER-2 (Homo sapiens, UniProt P04626).
T4 construct: His6 with thrombin site (N); purchased Proqinase (Freiburg, Germany)
Briefly: HER-2 Kinase Assay. Particulars: for IC50: value in parentheses; for inhibition at 1 µM: test concentration of 1 μM. The method in brief:
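GST/HIS6-tagged HER-2 aa 679–1255 kinase with biotinylated polyGluTyr (1.5 ng/μL), 1 μM ATP plus γ-33P-ATP, Mg2+/Mn2+, DTT, Hepes pH 7.5; 1 h at 30 °C. Substrate phosphorylation captured on streptavidin scintillation plates after EDTA/PBS washes; values are % inhibition at 1 μM or IC50.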

T3 sequence (P07948 whole entry): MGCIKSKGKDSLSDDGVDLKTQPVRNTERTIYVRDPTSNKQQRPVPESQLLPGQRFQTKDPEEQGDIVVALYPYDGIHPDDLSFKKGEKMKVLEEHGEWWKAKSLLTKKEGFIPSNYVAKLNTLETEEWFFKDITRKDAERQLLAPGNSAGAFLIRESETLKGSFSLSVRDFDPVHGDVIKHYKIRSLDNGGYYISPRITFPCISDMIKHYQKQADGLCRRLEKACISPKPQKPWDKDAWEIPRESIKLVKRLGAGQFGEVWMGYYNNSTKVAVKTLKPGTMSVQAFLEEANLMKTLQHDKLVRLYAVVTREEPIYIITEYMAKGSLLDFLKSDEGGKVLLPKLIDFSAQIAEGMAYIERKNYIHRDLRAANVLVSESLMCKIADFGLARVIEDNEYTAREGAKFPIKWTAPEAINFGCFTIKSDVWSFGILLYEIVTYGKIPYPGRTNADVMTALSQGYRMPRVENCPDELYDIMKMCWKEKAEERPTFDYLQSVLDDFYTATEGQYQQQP
T1 sequence (P00533 669-1210 limits assumed): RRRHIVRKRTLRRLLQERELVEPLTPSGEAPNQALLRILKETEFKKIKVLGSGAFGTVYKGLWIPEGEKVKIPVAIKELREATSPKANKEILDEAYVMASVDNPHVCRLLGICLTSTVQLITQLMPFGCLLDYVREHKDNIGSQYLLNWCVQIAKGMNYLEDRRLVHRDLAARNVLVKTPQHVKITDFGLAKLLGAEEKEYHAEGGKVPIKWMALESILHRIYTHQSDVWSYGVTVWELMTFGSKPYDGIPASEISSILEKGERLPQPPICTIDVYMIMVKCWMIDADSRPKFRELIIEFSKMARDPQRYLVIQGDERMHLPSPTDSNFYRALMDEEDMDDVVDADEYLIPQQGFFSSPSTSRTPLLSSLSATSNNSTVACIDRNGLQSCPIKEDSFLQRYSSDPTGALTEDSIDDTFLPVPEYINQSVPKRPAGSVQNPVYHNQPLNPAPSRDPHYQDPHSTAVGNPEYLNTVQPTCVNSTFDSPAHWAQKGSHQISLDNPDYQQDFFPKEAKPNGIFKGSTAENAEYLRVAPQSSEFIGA
T4 sequence (P04626 679-1255): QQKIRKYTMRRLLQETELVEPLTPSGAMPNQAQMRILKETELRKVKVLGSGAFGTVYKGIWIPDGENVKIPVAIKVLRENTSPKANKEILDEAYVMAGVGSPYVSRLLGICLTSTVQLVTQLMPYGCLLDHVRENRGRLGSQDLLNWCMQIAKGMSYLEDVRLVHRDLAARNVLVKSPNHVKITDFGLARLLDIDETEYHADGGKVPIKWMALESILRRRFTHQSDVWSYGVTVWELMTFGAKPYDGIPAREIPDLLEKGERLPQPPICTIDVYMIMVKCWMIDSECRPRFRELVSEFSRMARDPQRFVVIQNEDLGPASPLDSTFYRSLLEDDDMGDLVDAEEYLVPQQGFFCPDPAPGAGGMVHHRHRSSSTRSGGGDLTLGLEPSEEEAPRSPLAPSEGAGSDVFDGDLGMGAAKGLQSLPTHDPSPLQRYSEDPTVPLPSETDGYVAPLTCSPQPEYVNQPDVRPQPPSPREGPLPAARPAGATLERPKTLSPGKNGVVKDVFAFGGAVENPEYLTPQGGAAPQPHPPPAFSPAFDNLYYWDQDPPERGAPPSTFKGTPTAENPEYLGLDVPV
T2 sequence (P12931 whole entry): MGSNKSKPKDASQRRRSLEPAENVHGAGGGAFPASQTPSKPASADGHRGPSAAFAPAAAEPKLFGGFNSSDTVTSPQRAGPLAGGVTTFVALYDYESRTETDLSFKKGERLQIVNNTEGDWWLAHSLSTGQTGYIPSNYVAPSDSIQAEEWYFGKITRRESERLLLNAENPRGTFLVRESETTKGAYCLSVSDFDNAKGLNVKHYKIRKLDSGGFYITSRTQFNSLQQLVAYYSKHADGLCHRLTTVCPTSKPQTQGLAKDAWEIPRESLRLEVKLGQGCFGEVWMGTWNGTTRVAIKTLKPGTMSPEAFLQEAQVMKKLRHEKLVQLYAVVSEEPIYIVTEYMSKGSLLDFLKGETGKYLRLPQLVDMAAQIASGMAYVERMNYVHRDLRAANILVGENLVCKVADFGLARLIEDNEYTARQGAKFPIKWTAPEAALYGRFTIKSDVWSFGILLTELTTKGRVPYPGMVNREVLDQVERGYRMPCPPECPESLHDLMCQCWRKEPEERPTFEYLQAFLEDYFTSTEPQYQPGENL

In the case of `COc1ccc(N2C(=O)Nc3c(C(=O)Nc4ccc(CN5CCOCC5)cc4)sc4ncnc2c34)cc1Cl` [Cpd 122, 5-(3-chloro-4-methoxy-phenyl)-4-oxo-4,5-dihydro-3H-1-thia-3,5,6,8-tetraaza-acenaphthylene-2-carboxylic acid (4-morpholin-1-ylmethyl-phenyl)-amide], the figures for the IC50 against EGFR and at HER-2 were 222 nM and 1440 nM, respectively. Moreover, the inhibition at 2 µM against c-Src kinase (human) was -9%; against Lyn kinase (human), 3%.

With `O=C(Nc1ccc(CN2CCCCC2)cc1)c1sc2ncnc3c2c1NC(=O)N3c1ccc(Oc2ccccc2)c(Cl)c1` [Cpd 135, 5-(3-chloro-4-phenoxy-phenyl)-4-oxo-4,5-dihydro-3H-1-thia-3,5,6,8-tetraaza-acenaphthylene-2-carboxylic acid (4-piperidin-1-ylmethyl-phenyl)-amide], the IC50 against EGFR worked out at 18 nM; at HER-2, 90 nM. The inhibition at 2 µM is 12% against c-Src kinase (human) and 46% against Lyn kinase (human). For the same compound, the inhibition at 1 µM on HER-2 amounted to 85%.

Regarding `Cc1cccc(Cl)c1N1C(=O)Nc2c(C(=O)Nc3ccc(CN4CCOCC4)cc3)sc3ncnc1c23` [Cpd 146, 5-(2-chloro-6-methyl-phenyl)-4-oxo-4,5-dihydro-3H-1-thia-3,5,6,8-tetraaza-acenaphthylene-2-carboxylic acid (4-morpholin-4-ylmethyl-phenyl)-amide], the inhibition at 2 µM is 37% on EGFR, 45% at c-Src kinase (human) and 65% at Lyn kinase (human). The inhibition at 1 µM at HER-2 amounted to 21%.

On to `O=C(Nc1ccc(CN2CCCC2)cc1)c1sc2ncnc3c2c1NC(=O)N3c1cc(OCc2cccc(F)c2)c(Cl)cc1Cl` [Cpd 55, 5-[2,4-dichloro-5-(3-fluoro-benzyloxy)-phenyl]-4-oxo-4,5-dihydro-3H-1-thia-3,5,6,8-tetraaza-acenaphthylene-2-carboxylic acid (4-pyrrolidin-1-ylmethyl-phenyl)-amide], for which the inhibition at 2 µM on EGFR was 14%; on c-Src kinase (human) it was -16%; at Lyn kinase (human), 3%. In addition, the inhibition at 1 µM on HER-2 was -22%.

As for `COc1ccc(Cl)c(N2C(=O)Nc3c(C(=O)O)sc4ncnc2c34)c1` [Cpd 47, 5-(2-chloro-5-methoxy-phenyl)-4-oxo-4,5-dihydro-3H-1-thia-3,5,6,8-tetraaza-acenaphthylene-2-carboxylic acid], the inhibition at 2 µM is 5% at EGFR, 9% at c-Src kinase (human) and 28% at Lyn kinase (human). In addition, at HER-2, the inhibition at 1 µM was -28%.

At EGFR, `COc1cc(NC(=O)c2sc3ncnc4c3c2NC(=O)N4c2ccc(F)cc2Cl)ccc1OCCN1CCCCC1` [Cpd 144, 5-(2-chloro-4-fluoro-phenyl)-4-oxo-4,5-dihydro-3H-1-thia-3,5,6,8-tetraaza-acenaphthylene-2-carboxylic acid [3-methoxy-4-(2-piperidin-1-yl-ethoxy)-phenyl]-amide] showed an IC50 of 330 nM. Moreover, the inhibition at 2 µM against c-Src kinase (human) stood at 67%; at Lyn kinase (human) it was 84%. Moreover, the inhibition at 1 µM at HER-2 was determined as 18%.

As for `Cc1cccc(Cl)c1N1C(=O)Nc2c(C(=O)Nc3ccc(CN4CCCCC4)cc3)sc3ncnc1c23` [Cpd 147, 5-(2-chloro-6-methyl-phenyl)-4-oxo-4,5-dihydro-3H-1-thia-3,5,6,8-tetraaza-acenaphthylene-2-carboxylic acid (4-piperidin-1-ylmethyl-phenyl)-amide], the inhibition at 2 µM on EGFR turned out to be 43%; against c-Src kinase (human), 61%; against Lyn kinase (human) it was 76%. Besides, the inhibition at 1 µM against HER-2 amounted to 17%.

`CN1CCN(Cc2ccc(NC(=O)c3sc4ncnc5c4c3NC(=O)N5c3ccccc3Cl)cc2)CC1` [Cpd 151, 5-(2-chloro-phenyl)-4-oxo-4,5-dihydro-3H-1-thia-3,5,6,8-tetraaza-acenaphthylene-2-carboxylic acid [4-(4-methyl-piperazin-1-ylmethyl)-phenyl]-amide] yielded a concentration for half-maximal inhibition (IC50) on EGFR of 603 nM. Further, the inhibition at 2 µM against c-Src kinase (human) was determined as 53%; at Lyn kinase (human), 61%. Besides, the inhibition at 1 µM on HER-2 amounted to 29%.

Turning to `O=C(O)c1sc2ncnc3c2c1NC(=O)N3c1ccc(Oc2ccccc2)c(F)c1` [Cpd 112, 5-(3-fluoro-4-phenoxy-phenyl)-4-oxo-4,5-dihydro-3H-1-thia-3,5,6,8-tetraaza-acenaphthylene-2-carboxylic acid], the IC50 is 1030 nM on EGFR and 5060 nM at HER-2. Moreover, the inhibition at 2 µM at c-Src kinase (human) is -16%; at Lyn kinase (human) it was 30%.

Consider `O=C(Nc1ccc(CN2CCOCC2)cc1)c1sc2ncnc3c2c1NC(=O)N3c1ccc(F)c(Br)c1` [Cpd 153, 5-(3-bromo-4-fluoro-phenyl)-4-oxo-4,5-dihydro-3H-1-thia-3,5,6,8-tetraaza-acenaphthylene-2-carboxylic acid (4-morpholin-4-ylmethyl-phenyl)-amide], for which the IC50 came out at 159 nM against EGFR and 294 nM on HER-2. Besides, the values for the inhibition at 2 µM against c-Src kinase (human) and on Lyn kinase (human) were 16% and -4%, respectively. For the same compound, the inhibition at 1 µM against HER-2 was 70%.

Regarding `COc1cc(N2C(=O)Nc3c(C(=O)N4CCCC4)sc4ncnc2c34)c(Cl)cc1Cl` [Cpd 46, 5-(2,4-dichloro-5-methoxy-phenyl)-2-(pyrrolidine-1-carbonyl)3H,5H-1-thia-3,5,6,8-tetraaza-acenaphthylen-4-one], the inhibition at 2 µM at EGFR was found to be 1%; against c-Src kinase (human), 30%; against Lyn kinase (human), 40%. At HER-2, the inhibition at 1 µM turned out to be 0%.

`COc1cc(N2C(=O)Nc3c(C(=O)Nc4ccc(OC)c(OC)c4)sc4ncnc2c34)c(Cl)cc1Cl` [Cpd 35, 5-(2,4-dichloro-5-methoxy-phenyl)-4-oxo-4,5-dihydro-3H-1-thia-3,5,6,8-tetraaza-acenaphthylene-2-carboxylic acid (3,4-dimethoxy-phenyl)-amide]: on EGFR, the IC50 was found to be 5710 nM. Besides, the inhibition at 2 µM is 7% against c-Src kinase (human) and -11% on Lyn kinase (human). Also, the inhibition at 1 µM against HER-2 is -12%.

Regarding `CN1CCN(Cc2ccc(NC(=O)c3sc4ncnc5c4c3NC(=O)N5c3ccc(Oc4ccccc4)c(F)c3)cc2)CC1` [Cpd 115, 5-(3-fluoro-4-phenoxy-phenyl)-4-oxo-4,5-dihydro-3H-1-thia-3,5,6,8-tetraaza-acenaphthylene-2-carboxylic acid [4-(4-methyl-piperazin-1-ylmethyl)-phenyl]-amide], the IC50 on EGFR turned out to be 42 nM; at HER-2 it was 182 nM. For the same compound, the inhibition at 2 µM was -1% at c-Src kinase (human) and 51.2% at Lyn kinase (human).

On to `COc1cc(N2C(=O)Nc3c(C(=O)O)sc4ncnc2c34)c(Cl)cc1Cl` [Cpd 41, 5-(2,4-dichloro-5-methoxy-phenyl)-4-oxo-4,5-dihydro-3H-1-thia-3,5,6,8-tetraaza-acenaphthylene-2-carboxylic acid], for which the inhibition at 2 µM on EGFR is 11%; against c-Src kinase (human), 18%; against Lyn kinase (human), 29%. On HER-2, the inhibition at 1 µM is -17%.

In the case of `NCCCNC(=O)c1sc2ncnc3c2c1NC(=O)N3c1ccc2c(ccn2Cc2cccc(F)c2)c1` [Cpd 142, 5-[1-(3-fluoro-benzyl)-1H-indol-5-yl]-4-oxo-4,5-dihydro-3H-1-thia-3,5,6,8-tetraaza-acenaphthylene-2-carboxylic acid (3-amino-propyl)-amide], the half-inhibitory concentration (IC50) at EGFR was 11 nM; on HER-2 it was 381 nM. Moreover, the inhibition at 2 µM at c-Src kinase (human) worked out at 10%; against Lyn kinase (human) it was 39%.

Turning to `COc1ccc(N2C(=O)Nc3c(C(=O)Nc4ccc(CCN5CCCCC5)cc4)sc4ncnc2c34)cc1Cl` [Cpd 120, 5-(3-chloro-4-methoxy-phenyl)-4-oxo-4,5-dihydro-3H-1-thia-3,5,6,8-tetraaza-acenaphthylene-2-carboxylic acid [4-(2-piperidin-1-yl-ethyl)-phenyl]-amide], the figures for the half-maximal inhibitory concentration (IC50) at EGFR and on HER-2 were 1080 nM and 11700 nM, respectively. In addition, the values for the inhibition at 2 µM on c-Src kinase (human) and on Lyn kinase (human) were -5% and 0%, respectively.

Take `O=C(NCCN1CCOCC1)c1sc2ncnc3c2c1NC(=O)N3c1ccc(Oc2ccccc2)cc1` [Cpd 105, 4-oxo-5-(4-phenoxy-phenyl)-4,5-dihydro-3H-1-thia-3,5,6,8-tetraaza-acenaphthylene-2-carboxylic acid (2-morpholin-4-yl-ethyl)-amide]: the figures for the half-maximal inhibitory concentration (IC50) against EGFR and at HER-2 were 110 nM and 3150 nM, respectively. The inhibition at 2 µM was 12% against c-Src kinase (human) and -3% at Lyn kinase (human).
